Data on 21 molecules can be found in US20260027101A1, “BACTERIAL TOPOISOMERASE INHIBITORS” (priority 2022, published 2026).

Holding throughout (assay type): cell-based
Experiment [1] deals with Staphylococcus aureus ATCC 29213. Description: MIC, S. aureus ATCC 29213 (CLSI). As to conditions: ATCC29213, read-out: MIC against Staphylococcus aureus ATCC 29213. The protocol: (§1) Minimum inhibitory concentrations (MICs) were determined in triplicate according to Clinical and Laboratory Standards Institute (CLSI) guidelines using one or more strains of S. aureus or selected Gram-negative bacteria. […] Compounds were also assayed using a USA300 (Hidron, A. I., et al., Emergence of Community-Acquired Meticillin-Resistant Staphylococcus aureus Strain USA300 as a Cause of Necrotising Community-Onset Pneumonia. Lancet Infect. Dis. 2009, 9. 384-392) isolate of MRSA as well as a S. aureus strain isolated from a cystic fibrosis patient.

The test system of experiment [2] is Staphylococcus aureus USA300 (MRSA isolate). Kind of experiment: MIC, S. aureus USA300 MRSA isolate (CLSI). As to conditions: read-out: MIC against Staphylococcus aureus USA300. Here is the method:
as §1

The subject of experiment [3] is Staphylococcus aureus CF isolate. Description: MIC, S. aureus cystic fibrosis isolate (CLSI). As to conditions: read-out: MIC against Staphylococcus aureus CF isolate. The protocol: as §1
In experiment [4] the test system is Staphylococcus aureus D83N (29213-derived strain, GyrA substitution). Description: microbe, parasite or virus in culture. As to conditions: read-out: MIC against Staphylococcus aureus D83N. Here is the method: as §1
In experiment [5] the test system is Staphylococcus aureus M121K (29213-derived strain, GyrA substitution). Description: microbe, parasite or virus in culture. As to conditions: read-out: MIC against Staphylococcus aureus M121K. The protocol: as §1
The subject of experiment [6] is Salmonella enterica 14028 ΔtolC (efflux-deficient strain). Kind of experiment: microbe, parasite or virus in culture. As to conditions: Salmonella enterica, read-out: MIC against Salmonella enterica 14028 ΔtolC. Here is the method:
as §1

The test system of experiment [7] is Pseudomonas aeruginosa ATCC 27853. Kind of experiment: MIC, Pseudomonas aeruginosa ATCC 27853. As to conditions: ATCC27853, read-out: MIC against Pseudomonas aeruginosa ATCC 27853. Here is the method: as §1
For experiment [8], the system named is Salmonella enterica ATCC 14028. Description: MIC, Salmonella enterica ATCC 14028. As to conditions: ATCC14028, read-out: MIC against Salmonella enterica ATCC 14028. The protocol: as §1

In brackets after ≈: the same amount, converted by molar mass. Where only a bound is given, the exact number is not on record here.

Regarding `CN[C@H](CC(C)C)C(=O)N[C@H]1C(=O)N[C@@H](CC(N)=O)C(=O)N[C@H]2C(=O)N[C@H]3C(=O)N[C@H](C(=O)N[C@H](C(=O)O)c4cc(O)cc(O)c4-c4cc3ccc4O)[C@H](O)c3ccc(c(Cl)c3)Oc3cc2cc(c3O[C@@H]2O[C@H](CO)[C@@H](O)[C@H](O)[C@H]2O[C@H]2C[C@](C)(N)[C@H](O)[C@H](C)O2)Oc2ccc(cc2Cl)[C@H]1O` [vancomycin, reference compound], the MIC was 1 to 2 µg/mL (≈ 0.69 to 1.38 µM) in experiment [1]; 1 µg/mL (≈ 0.69 µM) in experiment [2]; 1 µg/mL (≈ 0.69 µM) in experiment [3]; 1 µg/mL (≈ 0.69 µM) in experiment [4]; 1 µg/mL (≈ 0.69 µM) in experiment [5].

In the case of `COc1ccc2ncc(F)c(CCN3CCC(C(N)Cc4ccc5c(c4)OCCO5)CC3)c2n1` (stereo not drawn) [Example 29, 2-(2,3-dihydrobenzo[b][1,4]dioxin-6-yl)-1-(1-(2-(3-fluoro-6-methoxy-1,5-naphthyridin-4-yl)ethyl)piperidin-4-yl)ethan-1-amine], the MIC in experiment [4] and in experiment [5] was greater than 16 µg/mL each time.

`COc1ccc2ncc(F)c(CCN3CCC(C(O)C(O)c4ccc(C)cc4)CC3)c2n1` (single isomer, unassigned) [Example 16, 1-(1-(2-(3-fluoro-6-methoxy-1,5-naphthyridin-4-yl)ethyl)piperidin-4-yl)-2-(p-tolyl)ethane-1,2-diol]: in experiment [5], the MIC worked out at 4 µg/mL (≈ 9.1 µM).

Regarding `COc1ccc2ncc(F)c(CCN3CCC([C@@H](O)[C@H](O)c4ccc(C)cc4)CC3)c2n1` [Example 4, (1R,2R)-1-(1-(2-(3-fluoro-6-methoxy-1,5-naphthyridin-4-yl)ethyl)piperidin-4-yl)-2-(p-tolyl)ethane-1,2-diol], the MIC in experiment [6] lay within 0.5 to 1 µg/mL (≈ 1.14 to 2.28 µM).

Turning to `COc1ccc2ncc(F)c(CCN3CCC(C(O)Cc4ccc5c(c4)OCCO5)CC3)c2n1` (stereo not drawn) [Example 26, 2-(2,3-dihydrobenzo[b][1,4]dioxin-6-yl)-1-(1-(2-(3-fluoro-6-methoxy-1,5-naphthyridin-4-yl)ethyl)piperidin-4-yl)ethan-1-ol], the MIC in experiment [4] and in experiment [5] was 4 µg/mL (≈ 8.56 µM) throughout.

In the case of `COc1ccc2ncc(F)c(CCN3CCC(C(O)C(O)c4ccc(C)cc4)CC3)c2n1` (single isomer, unassigned) [Example 13, 1-(1-(2-(3-fluoro-6-methoxy-1,5-naphthyridin-4-yl)ethyl)piperidin-4-yl)-2-(p-tolyl)ethane-1,2-diol], the MIC in experiment [4] is greater than 32 µg/mL.

Take `COc1ccc2ncc(F)c(CCN3CCC(CCc4ccc5c(c4)OCCO5)CC3)c2n1` [Example 20, 8-(2-(4-(2-(2,3-dihydrobenzo[b][1,4]dioxin-6-yl)ethyl)piperidin-1-yl)ethyl)-7-fluoro-2-methoxy-1,5-naphthyridine]: the MIC in experiment [6] is 0.25 µg/mL (≈ 0.554 µM); in experiment [4] it was 8 µg/mL (≈ 17.7 µM); in experiment [5] it was greater than 8 µg/mL.

Regarding `COc1ccc2ncc(F)c(CCN3CCC([C@@H](O)[C@H](O)c4ccc5c(c4)NC(=O)CO5)CC3)c2n1` [Example 6, 6-((1R,2R)-2-(1-(2-(3-fluoro-6-methoxy-1,5-naphthyridin-4-yl)ethyl)piperidin-4-yl)-1,2-dihydroxyethyl)-2H-benzo[b][1,4]oxazin-3(4H)-one], the MIC in experiment [4] and in experiment [5] was greater than 32 µg/mL in each case.

In the case of `COc1ccc2ncc(F)c(CCN3CCC(/C=C\c4ccc(C)cc4)CC3)c2n1` [Example 10, (Z)-7-fluoro-2-methoxy-8-(2-(4-(4-methylstyryl)piperidin-1-yl)ethyl)-1,5-naphthyridine], the MIC is 8 µg/mL (≈ 19.7 µM) in experiment [6], 32 µg/mL (≈ 78.9 µM) in experiment [4] and 32 µg/mL (≈ 78.9 µM) in experiment [5].

As for `COc1ccc2ncc(F)c(CCN3CCC([C@H](O)[C@@H](O)c4ccc5c(c4)NC(=O)CO5)CC3)c2n1` [Example 9, 6-((1S,2S)-2-(1-(2-(3-fluoro-6-methoxy-1,5-naphthyridin-4-yl)ethyl)piperidin-4-yl)-1,2-dihydroxyethyl)-2H-benzo[b][1,4]oxazin-3(4H)-one], the MIC in experiment [6] is 0.25 µg/mL (≈ 0.503 µM); in experiment [4], greater than 32 µg/mL; in experiment [5] it was greater than 32 µg/mL.

On to `COc1ccc2ncc(F)c(CCN3CCC(CCc4ccc(C)cc4)CC3)c2n1` [Example 19, 7-fluoro-2-methoxy-8-(2-(4-(4-methylphenethyl)piperidin-1-yl)ethyl)-1,5-naphthyridine], for which the MIC was 4 µg/mL (≈ 9.82 µM) in experiment [4] and greater than 16 µg/mL in experiment [5].

On to `COc1ccc2ncc(F)c(CCN3CCC([C@@H](O)[C@H](O)c4ccc5c(c4)OCCO5)CC3)c2n1` [Example 5, (1R,2R)-1-(2,3-dihydrobenzo[b][1,4]dioxin-6-yl)-2-(1-(2-(3-fluoro-6-methoxy-1,5-naphthyridin-4-yl)ethyl)piperidin-4-yl)ethane-1,2-diol], for which the MIC in experiment [6] is 0.5 µg/mL (≈ 1.03 µM).

On to `COc1ccc2ncc(F)c(CCN3CCC(C(N)Cc4ccc5c(c4)NC(=O)CO5)CC3)c2n1` (stereo not drawn) [Example 30, 6-(2-amino-2-(1-(2-(3-fluoro-6-methoxy-1,5-naphthyridin-4-yl)ethyl)piperidin-4-yl)ethyl)-2H-benzo[b][1,4]oxazin-3(4H)-one], for which, in experiment [5], the MIC is greater than 64 µg/mL.

For the molecule `COc1ccc2ncc(F)c(CCN3CCC(C(O)C(O)c4ccc5c(c4)NC(=O)CO5)CC3)c2n1` (single isomer, unassigned) [Example 15, 6-(-2-(1-(2-(3-fluoro-6-methoxy-1,5-naphthyridin-4-yl)ethyl)piperidin-4-yl)-1,2-dihydroxyethyl)-2H-benzo[b][1,4]oxazin-3(4H)-one], the MIC in experiment [6] came to 0.5 µg/mL (≈ 1.01 µM).

Consider `COc1ccc2ncc(F)c(CCN3CCC(C(O)Cc4ccc(C)cc4)CC3)c2n1` (stereo not drawn) [Example 25, 1-(1-(2-(3-fluoro-6-methoxy-1,5-naphthyridin-4-yl)ethyl)piperidin-4-yl)-2-(p-tolyl)ethan-1-ol], for which the values for the MIC in experiment [6], in experiment [4] and in experiment [5] were 1 µg/mL (≈ 2.36 µM), 8 µg/mL (≈ 18.9 µM) and 8 µg/mL (≈ 18.9 µM), respectively.

As to `COc1ccc2ncc(F)c(CCN3CCC(/C=C/c4ccc(C)cc4)CC3)c2n1` [Example 1, (E)-7-fluoro-2-methoxy-8-(2-(4-(4-methylstyryl)piperidin-1-yl)ethyl)-1,5-naphthyridine], the MIC is 0.5 to 1 µg/mL (≈ 1.23 to 2.47 µM) in experiment [6] and 2 to 4 µg/mL (≈ 4.93 to 9.86 µM) in experiment [5].

Consider `COc1ccc2ncc(F)c(CCN3CCC(C(O)Cc4ccc5c(c4)OCC(=O)N5)CC3)c2n1` (stereo not drawn) [Example 27, 7-(2-(1-(2-(3-fluoro-6-methoxy-1,5-naphthyridin-4-yl)ethyl)piperidin-4-yl)-2-hydroxyethyl)-2H-benzo[b][1,4]oxazin-3(4H)-one], for which the MIC in experiment [6] is no more than 0.125 µg/mL; in experiment [5], 32 µg/mL (≈ 66.6 µM).

As for `COc1ccc2ncc(F)c(CCN3CCC(C(N)Cc4ccc(C)cc4)CC3)c2n1` (stereo not drawn) [Example 28, 1-(1-(2-(3-fluoro-6-methoxy-1,5-naphthyridin-4-yl)ethyl)piperidin-4-yl)-2-(p-tolyl)ethan-1-amine], the MIC in experiment [4] is 32 µg/mL (≈ 75.7 µM); in experiment [5], greater than 32 µg/mL.

As to `COc1ccc2ncc(F)c(CCN3CCC(C(=O)Cc4ccc5c(c4)OCCO5)CC3)c2n1` [Example 23, 2-(2,3-dihydrobenzo[b][1,4]dioxin-6-yl)-1-(1-(2-(3-fluoro-6-methoxy-1,5-naphthyridin-4-yl)ethyl)piperidin-4-yl)ethan-1-one], the MIC in experiment [3] is 8 µg/mL (≈ 17.2 µM); in experiment [4], 32 µg/mL (≈ 68.7 µM); in experiment [5], greater than 32 µg/mL; in experiment [7] it was greater than 64 µg/mL; in experiment [8] it was greater than 64 µg/mL.

For `COc1ccc2ncc(F)c(CCN3CCC([C@H](O)[C@@H](O)c4ccc(C)cc4)CC3)c2n1` [Example 7, (1S,2S)-1-(1-(2-(3-fluoro-6-methoxy-1,5-naphthyridin-4-yl)ethyl)piperidin-4-yl)-2-(p-tolyl)ethane-1,2-diol], the MIC in experiment [4] and in experiment [5] was greater than 32 µg/mL throughout.

With `COc1ccc2ncc(F)c(CCN3CCC(CCc4ccc5c(c4)NC(=O)CO5)CC3)c2n1` [Example 21, 6-(2-(1-(2-(3-fluoro-6-methoxy-1,5-naphthyridin-4-yl)ethyl)piperidin-4-yl)ethyl)-2H-benzo[b][1,4]oxazin-3(4H)-one], the MIC in experiment [5] is 64 µg/mL (≈ 138 µM).
